According to US12398141B2 (SHANGHAI SYNERGY PHARMACEUTICAL SCIENCES CO., LTD, priority 2019, dated 2025):

Key:
[1] = Pharmacokinetic test after intragastric administration; assay type: in vivo; conditions: Sprague-Dawley, mouse, plasma, po, SD mice, 5 mg/kg intragastric; for AUC(0-t): read-out: Area under the curve (AUC0-24, ng/ml · h); for Cmax: read-out: Plasma concentration (Cmax, ng/ml); for half-life: read-out: half life (T1/2, h) (converted)
Protocol: Drug concentrations of compounds H01, H07, H11, H12, H14, H15, H22, H25, H29, H30, H33, H39 and H44 intragastrically administrated in plasma by using LC/MS/MS method at various time points were determined by using Sprague-Dawley (SD) […], aged 7-8 weeks and weighing […] as test animals. Pharmacokinetic behavior of the compounds of the invention in […] was studied and its pharmacokinetic characteristics were evaluated.
A certain amount of compounds was taken and dissolved in 50% PEG400/water to prepare a uniform solution.
Mice were administered intragastrically with the above compounds with a dosage of 5 mg/kg. Blood (0.2 ml) was taken from orbits before administration and 0.083 h, 0.25 h, 0.5 h, 1.0 h, 2.0 h, 4.0 h, 6.0 h, 8.0 h, 12.0 h and 24.0 h after administration. The blood was placed in anticoagulant tubes containing dipotassium ethylene glycol diethyl ether diamine tetraacetic acid, centrifugated at 6000 rpm at 4° C. for 10 minutes to separate plasma and saved at −80° C.
50 μL plasma at various time was taken and 150 μL acetonitrile solution containing internal standard tolbutamide (Sigma, USA) was added, mixed and stirred for 5 minutes. After centrifugation for 5 minutes at 12,000 rpm, 100 μL supernatant was taken, mixed with 200 μL water, following by sample injection and analysis.
Liquid chromatogram system was LC-20AD UFLC High Performance Liquid Chromatography system. Mass spectrum system was AB Sciex API4000 triple quadrupole mass spectrometer equipped with Electron Spray Ionization (ESI) (Applied Biosystems, Canada). A software for controlling liquid chromatography-mass spectrometry and quantitative analysis was Anna Rust 1.6 (Applied Biosystems, Canada). Pharmacokinetic parameters were analyzed by WinNonlin (version 5.2, Pharsight, Mountain View, […]) non-compartment model.
The test compound was dissolved in dimethyl sulfoxide to prepare a stock solution with a concentration of 1 mg/mL. The solution was diluted with 50% acetonitrile to obtain a series of standard working solutions with concentrations of 10 μg/mL, 3 μg/mL, 1 μg/mL, 0.3 μg/mL, 0.1 μg/mL, 0.03 μg/mL and 0.01 μg/mL, and a series of standard quality control solutions with concentrations of 8 μg/mL, 0.5 μg/mL, 0.03 μg/mL. 5 μL standard solution was mixed with 45 μL blank plasma substrate uniformly to obtain standard solutions of each concentration of a standard curve (1000 ng/mL, 500 ng/mL, 200 ng/mL, 100 ng/mL, 10 ng/mL, 5 ng/mL, 2 and 1 ng/mL) and quality control solutions (plasma samples: 800 ng/mL, 50 and 3 ng/mL).
Internal standard tolbutamide solid powder was dissolved in dimethyl sulfoxide to prepare a 1 mg/mL stock solution. The stock solution was diluted with 100% acetonitrile to obtain 200 ng/mL solution as a protein precipitation solution.

JAK2 = JAK2 (Homo sapiens (Human), UniProt O60674); test: JAK2 LANCE Ultra kinase assay; assay type: biochemical; conditions: 12 uM ATP
JAK1 = JAK1 (Homo sapiens (Human), UniProt P23458); test: JAK1 LANCE Ultra kinase assay; assay type: biochemical; conditions: for IC50: 38 uM ATP; for JAK2/JAK1: ratio of IC50 JAK2 to IC50 JAK1
Outline: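 JAK1 preincubated with compound 10 min at room temperature, then ULight-JAK-1 peptide/ATP added for 90 min at room temperature; stopped with EDTA, Eu-W1024 anti-phosphotyrosine TR-FRET read after 60 min. Inhibition normalised to DMSO and blank wells; IC50 from curve fit.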

Sequence of JAK1 (P23458 whole entry): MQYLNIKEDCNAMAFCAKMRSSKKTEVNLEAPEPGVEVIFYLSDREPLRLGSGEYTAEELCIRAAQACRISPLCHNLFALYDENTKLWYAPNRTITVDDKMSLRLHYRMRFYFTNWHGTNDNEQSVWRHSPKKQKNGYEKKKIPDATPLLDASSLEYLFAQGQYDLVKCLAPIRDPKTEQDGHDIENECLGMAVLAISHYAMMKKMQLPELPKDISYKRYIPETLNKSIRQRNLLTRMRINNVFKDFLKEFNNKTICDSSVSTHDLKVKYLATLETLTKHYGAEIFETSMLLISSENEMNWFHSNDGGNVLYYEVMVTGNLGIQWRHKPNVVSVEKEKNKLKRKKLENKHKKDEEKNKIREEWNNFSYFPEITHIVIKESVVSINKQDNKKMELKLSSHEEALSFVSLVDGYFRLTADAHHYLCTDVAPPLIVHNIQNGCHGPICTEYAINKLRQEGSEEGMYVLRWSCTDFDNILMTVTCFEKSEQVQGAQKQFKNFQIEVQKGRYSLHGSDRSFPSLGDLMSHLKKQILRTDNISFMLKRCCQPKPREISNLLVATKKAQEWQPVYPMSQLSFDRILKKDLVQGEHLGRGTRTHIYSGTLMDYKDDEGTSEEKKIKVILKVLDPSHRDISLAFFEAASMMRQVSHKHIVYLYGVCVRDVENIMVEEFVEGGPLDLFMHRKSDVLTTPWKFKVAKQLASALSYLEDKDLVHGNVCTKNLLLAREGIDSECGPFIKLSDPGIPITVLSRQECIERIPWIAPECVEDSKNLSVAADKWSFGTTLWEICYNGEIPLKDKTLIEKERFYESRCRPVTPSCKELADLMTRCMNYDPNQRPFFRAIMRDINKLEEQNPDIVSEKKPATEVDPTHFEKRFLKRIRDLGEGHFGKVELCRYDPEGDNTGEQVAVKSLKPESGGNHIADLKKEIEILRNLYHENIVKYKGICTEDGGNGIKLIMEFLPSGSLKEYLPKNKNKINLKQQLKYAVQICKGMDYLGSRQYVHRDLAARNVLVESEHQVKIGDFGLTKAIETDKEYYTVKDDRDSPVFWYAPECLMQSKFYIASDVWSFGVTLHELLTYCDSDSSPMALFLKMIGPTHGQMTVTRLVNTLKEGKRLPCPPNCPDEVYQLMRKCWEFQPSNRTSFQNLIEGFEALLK
Sequence of JAK2 (O60674 whole entry): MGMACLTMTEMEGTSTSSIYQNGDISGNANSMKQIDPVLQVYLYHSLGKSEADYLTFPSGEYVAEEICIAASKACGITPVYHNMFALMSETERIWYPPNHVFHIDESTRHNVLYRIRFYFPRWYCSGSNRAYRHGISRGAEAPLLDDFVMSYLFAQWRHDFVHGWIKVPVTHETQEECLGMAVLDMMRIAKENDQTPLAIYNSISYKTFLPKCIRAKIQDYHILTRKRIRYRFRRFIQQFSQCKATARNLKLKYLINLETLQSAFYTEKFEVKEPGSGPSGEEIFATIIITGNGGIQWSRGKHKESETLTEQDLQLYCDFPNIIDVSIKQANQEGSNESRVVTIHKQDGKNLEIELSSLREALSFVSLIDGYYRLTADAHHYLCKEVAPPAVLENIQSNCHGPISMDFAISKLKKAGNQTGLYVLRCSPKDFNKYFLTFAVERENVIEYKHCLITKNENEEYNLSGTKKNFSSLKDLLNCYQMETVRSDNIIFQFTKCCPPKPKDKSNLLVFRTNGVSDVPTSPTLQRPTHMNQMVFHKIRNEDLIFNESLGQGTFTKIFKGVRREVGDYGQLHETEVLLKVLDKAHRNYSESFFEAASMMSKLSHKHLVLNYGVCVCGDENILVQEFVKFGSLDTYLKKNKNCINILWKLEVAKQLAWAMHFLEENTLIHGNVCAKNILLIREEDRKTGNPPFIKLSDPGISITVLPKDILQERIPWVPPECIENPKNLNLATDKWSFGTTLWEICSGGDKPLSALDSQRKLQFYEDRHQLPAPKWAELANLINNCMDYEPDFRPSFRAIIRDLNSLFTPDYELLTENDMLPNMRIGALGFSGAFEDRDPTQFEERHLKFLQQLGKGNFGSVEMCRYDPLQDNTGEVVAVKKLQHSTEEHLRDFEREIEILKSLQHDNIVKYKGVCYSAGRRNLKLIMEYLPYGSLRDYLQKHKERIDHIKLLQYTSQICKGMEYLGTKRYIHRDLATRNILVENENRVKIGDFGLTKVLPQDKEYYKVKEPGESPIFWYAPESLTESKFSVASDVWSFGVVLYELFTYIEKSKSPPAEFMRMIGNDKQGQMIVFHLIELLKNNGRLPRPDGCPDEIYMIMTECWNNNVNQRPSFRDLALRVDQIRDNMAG

SMILES | AUC(0-t) [1] [ng·h/mL] | Cmax [1] [ng/mL] | half-life [1] [h] | IC50 (JAK2) [nM] | IC50 (JAK1) [nM] | JAK2/JAK1 (JAK1)
CN(c1c(C#N)cnc2[nH]ccc12)[C@H]1C[C@@H]2CN(C(=O)NCC(F)(F)F)C[C@@H]2C1 [Compound H22, (3aR,5s,6aS)-4-({2-[(2,2,2-trifluoroethyl)-carbamoyl]-hexahydrocyclopenta[c]pyrrole-5-yl}-methyl-amino)-1H-pyrrolo[2,3-b]pyridin-5-carbonitrile] | 757 ± 169 | 213 ± 22 | 3.11 ± 0.64 | 5.8 | 0.35 | 16.40
C[C@@H]1CCN(C(=O)CC#N)C[C@@H]1N(C)c1c(C#N)cnc2[nH]ccc12 [Compound H11, 4-{[(3R,4R)-1-(2-cyanoacetyl)-4-methylpiperidin-3-yl]-methyl-amino}-1H-pyrrolo[2,3-b]pyridin-5-carbonitrile] | 2620 ± 10 | 428 ± 32 | 8.53 ± 0.67 | 9.86 | 1.28 | 7.70
CCCS(=O)(=O)N[C@H]1C[C@@H](N(C)c2c(C#N)cnc3[nH]ccc23)C1 [Compound H14, (cis)-4-{[3-(propanesulfonamido)-cyclobutyl-1-yl]-methyl-amino}-1H-pyrrolo[2,3-b]pyridin-5-carbonitrile] | 915 ± 240 | 438 ± 24 | 2.11 ± 0.16 | 9.95 | 1.78 | 5.59
COc1nsc(NC(=O)N2C[C@H]3C[C@H](N(C)c4c(C#N)cnc5[nH]ccc45)C[C@H]3C2)n1 [Compound H07, (3aR,5s,6aS)-4-({2-[(3-methoxy-1,2,4-thiadiazole-5-yl)carbamoyl]-hexahydrocyclopenta[c]pyrrole-5-yl}-methyl-amino)-1H-pyrrolo[2,3-b]pyridin-5-carbonitrile] | 1920 ± 20 | 578 ± 43 | 4.62 ± 0.87 | – | – | –
N#Cc1cnc2[nH]ccc2c1N[C@H]1C[C@@H](NS(=O)(=O)CCC(F)(F)F)C1 [Compound H12, (cis)-4-{[3-(3,3,3-trifluoropropanesulfonamido)-cyclobutyl-1-yl]-amino}-1H-pyrrolo[2,3-b]pyridin-5-carbonitrile] | 1020 ± 266 | 644 ± 82 | 4.23 ± 0.47 | 7.63 | 0.56 | –
CN(c1c(C#N)cnc2[nH]ccc12)[C@H]1C[C@@H](NS(=O)(=O)CCC(F)(F)F)C1 [Compound H15, (cis)-4-{[3-(3,3,3-trifluoropropanesulfonamide)-cyclobutyl-1-yl]-methyl-amino}-1H-pyrrolo[2,3-b]pyridin-5-carbonitrile] | 1520 ± 241 | 518 ± 24 | 5.11 ± 0.16 | 16.6 | 2.36 | 7.03

Further lines, results first:

AUC(0-t) [1] [ng·h/mL] | Cmax [1] [ng/mL] | half-life [1] [h] | IC50 (JAK2) [nM] | IC50 (JAK1) [nM] | JAK2/JAK1 (JAK1) | SMILES
1680 ± 120 | 619 ± 39 | 4.17 ± 0.45 | 15.6 | 0.67 | 23.28 | CN(c1c(C#N)cnc2[nH]ccc12)[C@H]1C[C@@H]2CN(C(=O)Nc3nc(OCC(C)(C)N)ns3)C[C@@H]2C1 [Compound H44, (3aR,5s,6aS)-5-((5-cyano-1H-pyrrolo[2,3-b]pyridin-4-yl)(methyl)amino)-N-(3-(2-amino-2-methyl-propoxy)-1,2,4-thiadiazole-5-yl)hexahydrocyclopentadiene[c]pyrrole-2(1H)-carboxamide]
1270 ± 231 | 501 ± 17 | 4.67 ± 0.23 | 6.7 | 0.56 | 11.96 | CN(c1c(C#N)cnc2[nH]ccc12)[C@H]1C[C@@H]2CN(C(=O)Nc3ccc(Cl)c(C(F)(F)F)c3)C[C@@H]2C1 [Compound H25, (3aR,5s,6aS)-N-(4-chloro-3-(trifluoromethyl)phenyl)-5-((5-cyano-1H-pyrrolo[2,3-b]pyridin-4-yl)(methyl)amino)hexahydrocyclopentadiene[c]pyrrole-2(1H)-carboxamide]
1820 ± 173 | 440 ± 89 | 8.64 ± 0.23 | 5.7 | 0.65 | 8.77 | CN(C)c1nsc(NC(=O)N2C[C@H]3C[C@H](N(C)c4c(C#N)cnc5[nH]ccc45)C[C@H]3C2)n1 [Compound H33, (3aR,5s,6aS)-4-({2-[(3-dimethylamino-1,2,4-thiadiazole-5-yl)carbamoyl]-hexahydrocyclopenta[c]pyrrole-5-yl}-methyl-amino)-1H-pyrrolo[2,3-b]pyridin-5-carbonitrile]
1560 ± 230 | 574 ± 64 | 4.65 ± 0.15 | 21 | 0.35 | 60.00 | N#Cc1cnc2[nH]ccc2c1N1CC2CN(C(=O)NCC(F)(F)F)CC21 (centres unmarked) [Compound H39, 6-(5-cyano-1H-pyrrolo[2,3-b]pyridin-4-yl)-N-(2,2,2-trifluoroethyl)-3,6-diazabicyclo[3.2.0]heptane-3-carboxamide]
1530 ± 176 | 522 ± 23 | 4.43 ± 0.32 | 6.8 | 0.36 | 18.89 | COc1nsc(NC(=O)N[C@H]2C[C@@H](N(C)c3c(C#N)cnc4[nH]ccc34)C2)n1 [Compound H29, (cis)-1-(3-((5-cyano-1H-pyrrolo[2,3-b]pyridin-4-yl)(methyl)amino)cyclobutyl)-3-(3-methoxy-1,2,4-thiadiazole-5-yl)urea]
923 ± 263 | 433 ± 16 | 2.47 ± 0.46 | 6.4 | 0.57 | 11.23 | CC(C)c1nsc(NC(=O)N2C[C@H]3C[C@H](N(C)c4c(C#N)cnc5[nH]ccc45)C[C@H]3C2)n1 [Compound H30, (3aR,5s,6aS)-4-({2-[(3-isopropyl-1,2,4-thiadiazole-5-yl)carbamoyl]-hexahydrocyclopenta[c]pyrrole-5-yl}-methyl-amino)-1H-pyrrolo[2,3-b]pyridin-5-carbonitrile]
